Values belong to the molecule of their own block, whether it stands above or below them.
Key:
human diamine oxidase = biological target: T1, human diamine oxidase (Homo sapiens, UniProt P19801); experiment: inhibition of human diamine oxidase; type: biochemical
T1 sequence (P19801 20-751): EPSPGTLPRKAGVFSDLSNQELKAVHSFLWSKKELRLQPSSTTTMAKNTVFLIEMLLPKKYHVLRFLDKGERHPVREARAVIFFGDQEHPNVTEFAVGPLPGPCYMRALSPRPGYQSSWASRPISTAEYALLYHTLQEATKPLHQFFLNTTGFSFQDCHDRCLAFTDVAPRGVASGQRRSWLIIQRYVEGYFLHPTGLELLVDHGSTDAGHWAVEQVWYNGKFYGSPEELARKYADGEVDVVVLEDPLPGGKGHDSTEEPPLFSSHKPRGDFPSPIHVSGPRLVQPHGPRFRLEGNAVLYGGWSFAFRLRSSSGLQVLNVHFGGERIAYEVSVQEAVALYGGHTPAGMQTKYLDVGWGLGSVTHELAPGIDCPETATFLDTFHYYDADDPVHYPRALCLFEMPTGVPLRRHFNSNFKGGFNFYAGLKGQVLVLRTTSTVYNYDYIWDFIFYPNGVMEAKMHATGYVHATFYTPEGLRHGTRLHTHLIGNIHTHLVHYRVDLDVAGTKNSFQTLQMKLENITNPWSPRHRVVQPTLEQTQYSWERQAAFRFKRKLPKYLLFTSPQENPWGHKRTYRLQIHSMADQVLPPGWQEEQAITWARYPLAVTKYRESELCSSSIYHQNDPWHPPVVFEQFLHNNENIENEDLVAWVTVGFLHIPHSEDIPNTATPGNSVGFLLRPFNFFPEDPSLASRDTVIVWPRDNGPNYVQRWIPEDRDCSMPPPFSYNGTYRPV

[1] = patients with type 2 diabetes mellitus at high risk for cardiovascular events; cited from earlier work
SGLT2 versus SGLT1 = details: cited from earlier work
[2] = metformin on its own, in the diabetic; cited from earlier work

- inhibitory activity against human diamine oxidase (human diamine oxidase): low inhibitory activity
Structure (SMILES): CC(C)(C)NC(=O)c1ccc(OC/C(=C/F)CN)cc1 [Compound 23, (E)-4-(2-(Aminomethyl)-3-fluoroallyloxy)-N-tert-butylbenzamide]

Structure (SMILES): OC[C@H]1O[C@@H](c2ccc(Cl)c(Cc3ccc(O[C@H]4CCOC4)cc3)c2)[C@H](O)[C@@H](O)[C@@H]1O [empagliflozin]
- rates of the primary composite cardiovascular outcome and of death from any cause [1]: significantly lower rates
- selectivity SGLT2 versus SGLT1 (SGLT2 versus SGLT1): high selectivity

Structure (SMILES): CN(C)C(=N)N=C(N)N [metformin]
- average improvement in the HbA1c value [2]: 1.0-1.5%

From US20210212968A1, “COMBINATIONS COMPRISING AN SSAO/VAP-1 INHIBITOR AND A SGLT2 INHIBITOR, USES THEREOF” (Boehringer Ingelheim International GmbH, priority 2016, published 2021)
